In patent US10828315B2 (Madrigal Pharmaceuticals, Inc., priority 2013, dated 2020):
Converted amounts (≈) assume the structure as drawn. “Also recorded” adds a separate entry of the source.

How the values were obtained:
[1] = Chemical properties of SDC-TRAP-0063; assay type: physicochemical
Source text: SDC-TRAP-0063 is a light yellow solid having the following chemical properties: […]

HER2 = HER2 degradation assay with BT-474 cell line (Example 12, FACS); assay type: cell-based, human
[2] = system: Hsp90 client proteins (EGFR, MET, CDC2), Hsp70, DNA damage markers; assay: Pharmacodynamics in SCLC xenograft tumors; assay type: in vivo
SK-OV-3 xenografts = assay: Antitumor activity in SK-OV-3 ovarian cancer xenografts; assay type: in vivo, female Balb/c nude mice; conditions: SDC-TRAP-0063 200 mg/kg group; irinotecan alone and with ganetespib; 200 mg/kg
Description: This model is sensitive to HSP90 inhibition.
However, once the dosing is discontinued all but 200 mg/kg of SDC-TRAP-0063 dose group maintained tumor growth inhibition for a prolonged period of time.

[3] = SCLC xenograft tumors, 24 hrs after drug exposure

CCc1c2c(nc3ccc(OC(=O)N4CCC(CCn5ccc6cc(-n7c(O)nnc7-c7cc(C(C)C)c(O)cc7O)ccc65)CC4)cc13)-c1cc3c(c(=O)n1C2)COC(=O)[C@]3(O)CC [SDC-TRAP-0063, 4,11-diethyl-4-hydroxy-3,14-dioxo-3,4,12,14-tetrahydro-1H-pyrano[3′,4′:6,7]indolizino[1,2-b]quinolin-9-yl 4-(2-(5-(3-(2,4-dihydroxy-5-isopropylphenyl)-5-hydroxy-4H-1,2,4-triazol-4-yl)-1H-indol-1-yl)ethyl)piperidine-1-carboxylate]
logP [1]: 4.69 | pKa [1]: 9.27 | Stability remark beside solubility ([1]; In water (pH = 11.8*)): not stable | solubility ([1]; aqueous buffer, In water (pH = 9.7)): 33 µg/mL (≈ 37.5 µM) | solubility ([1]; aqueous buffer, In water (pH = 11.8*)): 926 µg/mL (≈ 1050 µM) | solubility ([1]; ethanol, organic solvent or mixture, In EtOH): 1560 µg/mL (≈ 1770 µM) | solubility ([1]; organic solvent or mixture, In PEG300): 5640 µg/mL (≈ 6410 µM) | IC50 (HER2): 793 nM | kinetics of acetyl-histone H3 induction ([2]; SCLC xenograft tumors, 24, 72 and 96 hrs): gradual increase in H3ac levels, peaking at 96 hr | Hsp90 client proteins (EGFR, MET, CDC2) and Hsp70 expression [2, 3]: slight increase in Hsp70 with no impact on EGFR, MET or CDC2 | markers for DNA damage (acetyl-histone H3, p53, p-H2AX) [2, 3]: dramatic increase in markers for DNA damage | phosphorylation of p53 ([2]; SCLC xenograft tumors, out to 96 hrs): induced by both agents, though more so with SDC-TRAP-0063 | antitumor activity in SK-OV-3 xenografts (FIG. 25) (SK-OV-3 xenografts): maintains the tumor growth inhibition for several weeks; also recorded: statistically significant inhibitory impact on the growth of SK-OV-3 xenografts
